Patent US11214803B2, “Modulators of YAP1 expression” (Ionis Pharmaceuticals, Inc., priority 2019, dated 2022)
Strand notation (5' to 3'): a small letter for the sugar, then the base; units joined by * are phosphorothioate-linked, units joined directly phosphodiester-linked; [ ] holds rarer units or linkages, { } end groups; capitals alone tell only the bases. e = 2'-O-(2-methoxyethyl) (MOE); k = constrained ethyl (cEt); [5mC] = 5-methylcytosine; d = 2'-deoxy (DNA); m = 2'-O-methyl

What was measured:
Yap1 mRNA [1] = assay: Dose-dependent inhibition of human Yap1 in SNU-449 cells (Example 9, RTS36584); assay type: cell-based; details: free uptake; for % UTC (Yap1 mRNA): approximately 48 hours; for IC50: linear regression on a log/linear plot
Outline: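 SNU-449 cells (10,000/well) took up modified oligonucleotides by free uptake at a range of doses for about 48 h. Yap1 mRNA was quantified with primer-probe set RTS36584, normalised to RIBOGREEN total RNA and expressed as % untreated control; IC50 from linear regression on log/linear plot.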

Yap1 mRNA [2] = assay: Dose-dependent inhibition of human Yap1 in A-431 cells (Example 8, 10,000 cells per well, RTS4814); assay type: cell-based; details: free uptake, approximately 48 hours, RTS4814; for Yap1 mRNA, % UTC: A-431 cells, 10,000 cells per well
Outline: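 A-431 cells (10,000/well) dosed with modified oligonucleotides by free uptake; Yap1 mRNA measured ~48 h later with primer-probe set RTS4814, normalized to total RNA (RIBOGREEN). Values are % of untreated control; IC50 from linear regression on log/linear plot.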

Substance | % UTC (Yap1 mRNA) (Yap1 mRNA [1]; 31.3 nM) [% UTC] | % UTC (Yap1 mRNA) (Yap1 mRNA [1]; 125.0 nM) [% UTC] | % UTC (Yap1 mRNA) (Yap1 mRNA [1]; 500.0 nM) [% UTC] | % UTC (Yap1 mRNA) (Yap1 mRNA [1]; 2000.00 nM) [% UTC] | IC50 (Yap1 mRNA [1]) [nM] | Yap1 mRNA, % UTC (Yap1 mRNA [2]; 31.3 nM) [% UTC] | Yap1 mRNA, % UTC (Yap1 mRNA [2]; 125.0 nM) [% UTC] | Yap1 mRNA, % UTC (Yap1 mRNA [2]; 500.0 nM) [% UTC] | Yap1 mRNA, % UTC (Yap1 mRNA [2]; 2000.00 nM) [% UTC] | IC50 (Yap1 mRNA [2]; A-431 cells, linear regression on log/linear plot) [nM]
1198814 (kA*kG*dA*dG*dT*dA*dT*dG*dT*dG*dG*k[5mC]*eA*kA*eT*kA) [compound 1198814] | 63 | 25 | 6 | 3 | 40 |  |  |  |  | 
1198352 (kT*kG*kT*dA*dT*dG*dT*d[5mC]*dA*dG*dA*dA*kG*eA*kG*eT; antisense) [compound 1198352] | 58 | 29 | 10 | 3 | 40 |  |  |  |  | 
1198616 (kT*kT*kT*dA*dA*dA*dG*dT*dG*dT*dA*dT*kG*kT*k[5mC]*eA; antisense) [compound 1198616] | 78 | 46 | 18 | 5 | 100 |  |  |  |  | 
1198494 (kG*kT*dG*d[5mC]*dT*dT*dT*dG*dG*dA*dA*eG*kA*eT*k[5mC]*eT; antisense) [compound 1198494] | 59 | 37 | 24 | 13 | 100 |  |  |  |  | 
1200797 (kA*kT*kT*dA*dG*mA*dG*dT*dA*dT*dG*dT*dG*kG*k[5mC]*kA; antisense) [compound 1200797] | 84 | 52 | 23 | 11 | 200 |  |  |  |  | 
1200788 (kG*kA*kA*dA*dT*mU*dG*dT*d[5mC]*dT*d[5mC]*dA*dT*kG*k[5mC]*k[5mC]) [compound 1200788] | 61 | 38 | 19 | 9 | 100 |  |  |  |  | 
1198285 (kA*kT*kT*dG*dT*d[5mC]*dT*d[5mC]*dA*dT*dG*d[5mC]*k[5mC]*eT*kT*eA; antisense) [compound 1198285] | 67 | 41 | 16 | 5 | 100 |  |  |  |  | 
1200861 (kT*kT*kA*dA*dA*mG*dT*dG*dT*dA*dT*dG*dT*k[5mC]*kA*kG; antisense) [compound 1200861] | 74 | 43 | 17 | 4 | 100 |  |  |  |  | 
1198917 (k[5mC]*kA*d[5mC]*dT*dT*dT*dT*dA*d[5mC]*dA*dT*kT*dA*kG*dG*kA; antisense) [compound 1198917] | 81 | 37 | 12 | 6 | 100 |  |  |  |  | 
1198525 (kA*kG*dT*dG*dT*dA*dT*dG*dT*d[5mC]*dA*eG*kA*eA*kG*eA) [compound 1198525] | 62 | 26 | 8 | 1 | 40 |  |  |  |  | 
1198554 (kT*kT*kA*dG*dA*dG*dT*dA*dT*dG*dT*dG*kG*k[5mC]*kA*eA; antisense) [compound 1198554] | 72 | 46 | 22 | 8 | 100 |  |  |  |  | 
1074728 (antisense kT*kG*kA*dG*dG*dT*dA*dT*dA*dA*d[5mC]*dT*dG*kG*kG*k[5mC]) [compound 1074728] | 69 | 45 | 19 | 8 | 100 | 28 | 7 | 4 | 4 | < 20
